The values below come from PMC6891286, “Towards the Development of an In vivo Chemical Probe for Cyclin G Associated Kinase (GAK)” (Molecules, 2019).

For data set [1], the target named is T1, GAK (Homo sapiens, UniProt O14976).
T1 sequence (O14976 1-1311): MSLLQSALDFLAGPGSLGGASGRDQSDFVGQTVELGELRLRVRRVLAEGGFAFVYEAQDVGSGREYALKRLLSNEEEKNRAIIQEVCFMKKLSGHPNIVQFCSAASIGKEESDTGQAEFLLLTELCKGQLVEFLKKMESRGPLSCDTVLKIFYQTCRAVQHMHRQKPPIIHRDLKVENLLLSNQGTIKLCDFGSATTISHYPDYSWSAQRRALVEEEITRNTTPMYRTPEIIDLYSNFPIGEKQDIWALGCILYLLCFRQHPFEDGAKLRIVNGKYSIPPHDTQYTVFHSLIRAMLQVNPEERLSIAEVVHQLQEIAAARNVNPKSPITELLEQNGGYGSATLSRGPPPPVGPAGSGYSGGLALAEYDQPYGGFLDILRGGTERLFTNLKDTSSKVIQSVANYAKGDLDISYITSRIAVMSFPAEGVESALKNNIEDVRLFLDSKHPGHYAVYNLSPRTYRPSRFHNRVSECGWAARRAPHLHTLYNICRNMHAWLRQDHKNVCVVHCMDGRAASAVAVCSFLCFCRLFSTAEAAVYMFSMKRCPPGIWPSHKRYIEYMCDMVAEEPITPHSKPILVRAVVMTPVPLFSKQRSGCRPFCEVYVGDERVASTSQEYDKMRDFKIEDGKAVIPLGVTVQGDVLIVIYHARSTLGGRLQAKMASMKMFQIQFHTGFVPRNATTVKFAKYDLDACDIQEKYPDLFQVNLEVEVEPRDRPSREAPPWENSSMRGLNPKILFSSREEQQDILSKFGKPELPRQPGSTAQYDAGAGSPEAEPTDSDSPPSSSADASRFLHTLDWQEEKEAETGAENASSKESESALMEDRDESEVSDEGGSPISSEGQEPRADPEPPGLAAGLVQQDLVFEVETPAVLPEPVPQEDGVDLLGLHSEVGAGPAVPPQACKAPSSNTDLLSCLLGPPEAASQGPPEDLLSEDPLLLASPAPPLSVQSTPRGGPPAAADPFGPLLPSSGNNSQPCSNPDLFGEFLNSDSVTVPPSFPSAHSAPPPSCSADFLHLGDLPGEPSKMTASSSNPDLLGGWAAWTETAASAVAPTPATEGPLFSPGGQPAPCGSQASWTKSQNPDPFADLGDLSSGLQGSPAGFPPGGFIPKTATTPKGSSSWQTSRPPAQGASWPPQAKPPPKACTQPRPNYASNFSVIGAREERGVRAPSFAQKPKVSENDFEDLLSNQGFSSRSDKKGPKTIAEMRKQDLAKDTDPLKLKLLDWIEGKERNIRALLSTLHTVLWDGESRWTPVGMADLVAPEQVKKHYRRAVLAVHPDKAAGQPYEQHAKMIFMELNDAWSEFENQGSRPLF
Briefly: live cell NanoBRET target engagement assay. In kind it is cell-based. Conditions: for IC50 values in cells: live cell NanoBRET assay; for IC50: nanoBRET, mean average, n = 2.

For another data set, the target named is STK16 (Homo sapiens, UniProt O75716). Briefly: NAK family TR-FRET binding displacement assay. As to conditions: NAK family FRET screening; read-out: Binding displacement assay STK16 Ki.
Data set [2] in a line: mouse liver microsome metabolic stability. Conditions: mouse liver microsomes; for T1/2 Ratio: normalization with respect to internal control (propranolol); for half-life: mouse, T1/2 (min), mouse liver microsomes with NADPH, mean average, n = 2. As for the experimental part: SGC-GAK-1 (1) was incubated with MLMs in the presence or absence of added NADPH, and the compound was quantified at various time points over an hour.
The metabolic stability of the 4-anilinoquinolines (8–13) were evaluated in MLMs (Table 1). Half-lives for metabolic clearance were normalized to propranolol in each experimental run to control for variations in the MLM preparations.

In data set [3] the target is T1, GAK. Briefly: TR-FRET ligand-binding displacement assay.
A further data set addresses AAK1 (Homo sapiens, UniProt Q2M2I8). Briefly: NAK family TR-FRET binding displacement assay. As to conditions: NAK family FRET screening.
The target of the next data set is BMP2K (Homo sapiens, UniProt Q9NSY1). The experiment in a line: NAK family TR-FRET binding displacement assay.
The nature of the next data set: Kinetic Solubility. In kind it is physicochemical. Conditions: pH 7.4, aqueous buffer, kinetic from dmso stock, PBS pH7.4 (100 µM).
The mark [4] stands for this setting: TR-FRET assay, read-out: Biochemical GAK Ki.
[5] abbreviates: NAK family FRET screening, read-out: Binding displacement assay GAK Ki.

Like-named read-outs stand apart in the source and are kept apart here.

AAK1, sequence (Q2M2I8 whole entry): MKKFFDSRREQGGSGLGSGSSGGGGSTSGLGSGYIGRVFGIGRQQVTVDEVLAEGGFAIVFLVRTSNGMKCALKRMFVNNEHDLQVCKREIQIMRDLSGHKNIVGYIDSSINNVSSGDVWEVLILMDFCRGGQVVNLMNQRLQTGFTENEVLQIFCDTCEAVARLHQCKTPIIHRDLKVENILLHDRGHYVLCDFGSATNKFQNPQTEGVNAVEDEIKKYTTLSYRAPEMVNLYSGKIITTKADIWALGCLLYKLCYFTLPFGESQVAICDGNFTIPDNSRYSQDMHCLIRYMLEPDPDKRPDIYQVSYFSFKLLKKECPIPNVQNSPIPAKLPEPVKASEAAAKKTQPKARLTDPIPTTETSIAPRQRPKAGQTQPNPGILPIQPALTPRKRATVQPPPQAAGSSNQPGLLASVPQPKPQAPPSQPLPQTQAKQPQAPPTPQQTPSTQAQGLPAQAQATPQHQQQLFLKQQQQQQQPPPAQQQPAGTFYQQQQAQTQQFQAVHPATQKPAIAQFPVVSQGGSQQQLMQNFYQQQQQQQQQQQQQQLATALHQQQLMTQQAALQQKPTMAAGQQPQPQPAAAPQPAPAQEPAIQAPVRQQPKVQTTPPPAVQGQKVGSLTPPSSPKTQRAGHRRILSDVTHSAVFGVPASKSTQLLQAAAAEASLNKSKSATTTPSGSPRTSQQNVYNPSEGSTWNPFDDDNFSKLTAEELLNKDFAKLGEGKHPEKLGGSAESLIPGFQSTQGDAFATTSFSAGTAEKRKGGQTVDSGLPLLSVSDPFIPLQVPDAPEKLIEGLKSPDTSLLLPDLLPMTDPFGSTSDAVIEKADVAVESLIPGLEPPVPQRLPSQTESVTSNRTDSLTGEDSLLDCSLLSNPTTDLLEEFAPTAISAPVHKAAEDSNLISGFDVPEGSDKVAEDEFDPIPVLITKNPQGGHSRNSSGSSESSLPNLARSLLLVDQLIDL
BMP2K, sequence (Q9NSY1 whole entry): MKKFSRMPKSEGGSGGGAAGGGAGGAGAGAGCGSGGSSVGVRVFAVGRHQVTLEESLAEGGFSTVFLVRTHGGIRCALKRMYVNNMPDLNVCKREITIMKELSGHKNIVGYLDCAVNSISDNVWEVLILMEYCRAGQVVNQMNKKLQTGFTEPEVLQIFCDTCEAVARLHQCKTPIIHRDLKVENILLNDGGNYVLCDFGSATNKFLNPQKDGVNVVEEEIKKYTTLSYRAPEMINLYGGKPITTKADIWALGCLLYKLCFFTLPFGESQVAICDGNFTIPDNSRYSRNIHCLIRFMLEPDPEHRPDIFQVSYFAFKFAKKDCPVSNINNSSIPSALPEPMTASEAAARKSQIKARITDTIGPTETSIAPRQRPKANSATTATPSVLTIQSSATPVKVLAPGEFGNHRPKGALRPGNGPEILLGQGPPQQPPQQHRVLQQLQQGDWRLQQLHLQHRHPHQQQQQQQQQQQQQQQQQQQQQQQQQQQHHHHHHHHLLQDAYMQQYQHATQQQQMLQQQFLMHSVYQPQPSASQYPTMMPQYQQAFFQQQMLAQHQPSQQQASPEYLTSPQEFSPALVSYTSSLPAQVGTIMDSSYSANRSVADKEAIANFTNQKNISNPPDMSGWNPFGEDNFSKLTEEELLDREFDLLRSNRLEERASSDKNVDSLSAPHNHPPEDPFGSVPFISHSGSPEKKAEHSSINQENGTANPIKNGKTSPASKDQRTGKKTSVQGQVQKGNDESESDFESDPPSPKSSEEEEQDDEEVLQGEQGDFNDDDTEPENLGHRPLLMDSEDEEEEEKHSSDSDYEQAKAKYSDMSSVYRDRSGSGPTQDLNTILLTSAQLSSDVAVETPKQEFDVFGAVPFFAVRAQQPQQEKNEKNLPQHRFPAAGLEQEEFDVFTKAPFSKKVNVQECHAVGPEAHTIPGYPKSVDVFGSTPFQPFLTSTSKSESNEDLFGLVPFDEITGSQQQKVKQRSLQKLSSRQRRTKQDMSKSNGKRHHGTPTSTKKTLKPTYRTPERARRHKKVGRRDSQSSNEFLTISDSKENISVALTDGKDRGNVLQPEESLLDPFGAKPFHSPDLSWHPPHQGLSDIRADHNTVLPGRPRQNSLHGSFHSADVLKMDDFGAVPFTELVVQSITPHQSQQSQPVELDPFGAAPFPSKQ
STK16, sequence (O75716 whole entry): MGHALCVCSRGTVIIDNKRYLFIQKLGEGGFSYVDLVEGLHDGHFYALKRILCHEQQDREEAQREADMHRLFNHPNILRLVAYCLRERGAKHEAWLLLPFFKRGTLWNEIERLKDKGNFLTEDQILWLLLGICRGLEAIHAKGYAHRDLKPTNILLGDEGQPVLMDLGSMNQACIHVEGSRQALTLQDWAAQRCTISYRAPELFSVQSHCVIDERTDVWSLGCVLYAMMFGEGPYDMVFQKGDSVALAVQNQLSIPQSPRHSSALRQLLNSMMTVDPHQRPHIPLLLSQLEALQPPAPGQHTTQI

Consider `Brc1ccc2nccc(Nc3cccc4ccoc34)c2c1` [Compound 20, N-(Benzofuran-7-yl)-6-bromoquinolin-4-amine], for which the “IC50 values in cells” value against GAK [1] is given as “submicromolar”. The same compound gave an IC50 at GAK [1] of 0.57 µM. Besides, the Ki was above 100 µM at STK16, 0.0043 µM at GAK [3] (setting [4]), 4.6 µM on AAK1 and 16 µM at BMP2K. For the same compound, in data set [2], the “T1/2 Ratio” value is 0.08. In data set [2], this compound returned a half-life of 0.9 min.
Consider `Fc1c(F)c(F)c(Nc2ccnc3ccc(C(F)(F)F)cc23)c(F)c1F` [Compound 12], for which the inhibition constant (Ki) is 19 µM at STK16, 0.88 µM on GAK [3] (setting [4]), above 100 µM on AAK1 and above 100 µM at BMP2K. Also, the “T1/2 Ratio” value in data set [2] was found to be 7.0. The compound further returned a half-life in data set [2] of 45.6 min.
At GAK [1], `Brc1ccc2nccc(Nc3cccc4c3CCO4)c2c1` [Compound 17, 6-Bromo-N-(2,3-dihydrobenzofuran-4-yl)quinolin-4-amine] yielded an IC50 above 5 µM. Moreover, the inhibitory constant (Ki) is above 100 µM at STK16, 0.0052 µM on GAK [3] (setting [4]), above 100 µM on AAK1 and above 100 µM on BMP2K. Further, in data set [2], the “T1/2 Ratio” value came out at 0.16. The compound also registered a half-life in data set [2] of 1.7 min.
The compound `O=c1[nH]c2ccc(Nc3ccnc4ccc(Br)cc34)cc2o1` [Compound 40, 6-[(6-Bromoquinolin-4-yl)amino]-2,3-dihydro-1,3-benzoxazol-2-one] returned a 50% inhibitory concentration (IC50) on GAK [1] above 5 µM. Also, the Ki was 8.8 µM at STK16, 0.68 µM on GAK [3] (setting [4]), 2.4 µM at AAK1 and 4.9 µM on BMP2K. In addition, in data set [2], the “T1/2 ratios fold higher than 9” value was at least 2 fold. In addition, the “T1/2 Ratio” value in data set [2] worked out at 6.9. Also, the half-life in data set [2] is 55.9 min.
`Brc1ccc2nccc(Nc3cccc4nc[nH]c34)c2c1` [Compound 27, N-(1H-Benzo[d]imidazol-7-yl)-6-bromoquinolin-4-amine] showed an IC50 at GAK [1] above 5 µM. Further, the Ki amounted to 26 µM on STK16, 0.066 µM at GAK [3] (setting [5]), 1.3 µM on AAK1 and 2.3 µM at BMP2K. Moreover, in data set [2], the “T1/2 Ratio” value was 1.0. Moreover, the half-life in data set [2] came out at 8.1 min.
Regarding `COc1cccc(Nc2ccnc3ccc(Br)cc23)c1OC` [Compound 15, 6-Bromo-N-(2,3-dimethoxyphenyl)quinolin-4-amine], at GAK [1], the IC50 was above 5 µM. Moreover, the Ki on STK16 is above 100 µM; at GAK [3] (setting [4]), 0.74 µM; at AAK1 it was 3.3 µM; on BMP2K it was 8.7 µM. Besides, the “T1/2 Ratio” value in data set [2] is reported as 0.12. In data set [2], this compound showed a half-life of 1 min.
At GAK [1], `O=C1NCc2ccc(Nc3ccnc4ccc(Br)cc34)cc21` [Compound 38, 6-[(6-Bromoquinolin-4-yl)amino]-2,3-dihydro-1H-isoindol-1-one] showed a half-inhibitory concentration (IC50) above 5 µM. Besides, the Ki stood at 2.7 µM on STK16, 0.062 µM at GAK [3] (setting [4]), 1.4 µM at AAK1 and 0.98 µM at BMP2K. For the same compound, in data set [2], the “T1/2 Ratio” value came out at 1.0. This compound also came in with a half-life in data set [2] of 8.1 min.
In turn, `Cn1c(=O)[nH]c2cc(Nc3ccnc4ccc(Br)cc34)ccc21` [Compound 42, 5-[(6-Bromoquinolin-4-yl)amino]-1-methyl-2,3-dihydro-1H-1,3-benzodiazol-2-one] gave an IC50 at GAK [1] above 5 µM. In addition, the Ki on STK16 worked out at 9.3 µM; at GAK [3] (setting [4]), 1.6 µM; on AAK1 it was 4.1 µM; on BMP2K, 6.6 µM. Besides, in data set [2], the “T1/2 ratios fold higher than 9” value is listed as at least 2 fold. The “T1/2 Ratio” value in data set [2] is recorded as 4.2. In addition, the half-life in data set [2] worked out at 33.6 min.
Take `Brc1ccc2nccc(Nc3cccc4nonc34)c2c1` [Compound 28, N-(6-Bromoquinolin-4-yl)benzo[c][1,2,5]oxadiazol-4-amine]: the concentration for half-maximal inhibition (IC50) against GAK [1] is 2.5 µM. The Ki on STK16 was determined as 11 µM; on GAK [3] (setting [4]) it was 0.041 µM; at AAK1 it was 4.6 µM; on BMP2K, 13 µM. Besides, the “T1/2 Ratio” value in data set [2] is 0.15. In addition, in data set [2], the half-life is 1.2 min.
The compound `O=c1[nH]c2cc(Nc3ccnc4ccc(Br)cc34)ccc2o1` [Compound 41, 5-[(6-Bromoquinolin-4-yl)amino]-2,3-dihydro-1,3-benzoxazol-2-one] returned an IC50 against GAK [1] above 5 µM. In addition, the Ki on STK16 is above 100 µM; at GAK [3] (setting [4]), 0.11 µM; at AAK1, 37 µM; at BMP2K, 79 µM. The “T1/2 ratios fold higher than 9” value in data set [2] is reported as at least 2 fold. For the same compound, the “T1/2 Ratio” value in data set [2] worked out at 3.4. This compound also yielded a half-life in data set [2] of 27.8 min.
For the compound `O=c1[nH]c2ccc(Nc3ccnc4ccc(Br)cc34)cc2[nH]1` [Compound 39, 5-[(6-Bromoquinolin-4-yl)amino]-2,3-dihydro-1H-1,3-benzodiazol-2-one], the IC50 against GAK [1] was above 5 µM. For the same compound, the Ki on STK16 was 21 µM; on GAK [3] (setting [4]), 0.36 µM; at AAK1 it was 1.9 µM; on BMP2K, 22 µM. In addition, the “T1/2 ratios fold higher than 9” value in data set [2] is at least 2 fold. The “T1/2 Ratio” value in data set [2] is given as above 25. In data set [2], this compound yielded a half-life above 200 min.
Consider `O=S1(=O)Cc2ccc(Nc3ccnc4ccc(Br)cc34)cc2C1` [Compound 43, 5-((6-Bromoquinolin-4-yl)amino)-1,3-dihydrobenzo[c]thiophene 2,2-dioxide], for which the half-inhibitory concentration (IC50) against GAK [1] was above 5 µM. For the same compound, the inhibitory constant (Ki) is 8 µM on STK16, 1.7 µM on GAK [3] (setting [4]), 3.3 µM at AAK1 and 6.4 µM on BMP2K. The “T1/2 Ratio” value in data set [2] is listed as 1.9. In addition, the half-life in data set [2] worked out at 15.6 min.
The compound `Cn1nnc2c(Nc3ccnc4ccc(Br)cc34)cccc21` [Compound 30, 6-Bromo-N-(1-methyl-1H-benzo[d][1,2,3]triazol-4-yl)quinolin-4-amine] returned a half-maximal inhibitory concentration (IC50) against GAK [1] above 5 µM. The Ki on STK16 was above 100 µM; on GAK [3] (setting [5]) it was 2.8 µM; at AAK1, 8.7 µM; at BMP2K it was 20 µM. Besides, in data set [2], the “T1/2 Ratio” value worked out at 0.09. The half-life in data set [2] was determined as 0.73 min.
With `Brc1ccc2nccc(Nc3cccc4c3OCC4)c2c1` [Compound 18, 6-Bromo-N-(2,3-dihydrobenzofuran-7-yl)quinolin-4-amine], half-maximal inhibition on GAK [1] (IC50) was put at 2.5 µM. The inhibition constant Ki at STK16 is above 100 µM; on GAK [3] (setting [4]) it was 0.029 µM; at AAK1, 3.5 µM; on BMP2K, 11 µM. Also, the “T1/2 Ratio” value in data set [2] was 0.10. Besides, the half-life in data set [2] worked out at 0.82 min.
For the compound `Brc1ccc2nccc(Nc3cccc4occc34)c2c1` [Compound 19, N-(Benzofuran-4-yl)-6-bromoquinolin-4-amine], the “IC50 values in cells” value on GAK [1] is “submicromolar”. It took 0.18 µM to reach half-maximal inhibition on GAK [1] (IC50). In addition, the Ki on STK16 is above 100 µM; on GAK [3] (setting [4]), 0.0019 µM; on AAK1, 1.9 µM; on BMP2K, 11 µM. For the same compound, the “T1/2 Ratio” value in data set [2] was determined as 0.16. The half-life in data set [2] turned out to be 1.7 min.
Turning to `Fc1cc2cn[nH]c2cc1Nc1ccnc2ccc(Br)cc12` [Compound 36, 6-Bromo-N-(5-fluoro-1H-indazol-6-yl)quinolin-4-amine], at GAK [1], the IC50 was above 5 µM. The solubility kinetic in the data set “Kinetic Solubility” (read-out: Kinetic Solubility µM) was 2 µM. Also, the solubility kinetic in the data set “Kinetic Solubility” (read-out: Kinetic Solubility µg/mL) is 0.7 µg/mL. Further, in data set [2], the “T1/2 Ratio” value amounted to 2.2 and the half-life is 14.8 min.
